Where “and” joins values, the source holds several entries; their conditions need not be identical. Identical values can stand only once. Like-named read-outs stand apart in the source and are kept apart here.
How the values were obtained:
[1] = Metabolic stability in rat liver S9; type: in vitro ADME, Sprague Dawley rat; set-up: half-life: dose or concentration left out as unconfirmed
Protocol: Incubation Buffer (PBK): 50 mM potassium phosphate buffer was prepared from 1 M potassium phosphate buffer, pH 7.2. […] The dilution of […] was prepared by 90% methanol/10% DMSO, then 10 μM working solutions were prepared by diluting the 0.1 mM intermediates with 50 mM PBK. […] Prior to use, the stock solutions were brought to room temperature and thoroughly mixed. […] Cofactors Solutions: the mixture of cofactors solution was made at 10 mM of NADPH and 10 mM of UDPGA in PBK buffer.
The incubation was carried out in 96-well plates. The liver S9 working solutions were added to 96-well plates (80 μL/well) in duplicate. […] Reaction was initiated by adding cofactor mixture 10 μL/well. The plates were incubated at 37° C. in a water bath with shaking. […] The final organic solvent content in the incubation was ≤1%.
At specified time points, i.e., 5, 10, 20, 30 and 60 minutes, NCF60 (without adding NADPH (Nicotinamide-adenine dinucleotide phosphate, reduced form) and UDPGA (Uridine 5′-diphosphoglucuronic acid trisodium salt) replaced with PBK buffer reaction was stopped by adding three volumes of stop solution. The time zero (To) samples were prepared by adding three volumes of stop solution to liver S9 samples, followed by addition of test article or control, and cofactor mixture solution 10 μL/well.
Subsequently, 100 μL of supernatant.
Positive controls: 7-ethoxycoumarin and 7-hydroxycoumarin.

Enzyme and uptake assays = type: biochemical; conditions: human recombinant; [3H]NE incorporation into cells; read-out: IC50, Norepinephrine transporter uptake (h)
Protocol: A study was conducted to test 5 compounds in cellular and nuclear receptor functional and enzyme and uptake assays.
The results are expressed as a percent of control specific activity
and as a percent inhibition of control specific activity
The IC50 values (concentration causing a half-maximal inhibition of control specific activity), EC50 values (concentration producing a half-maximal increase in control basal activity), and Hill coefficients (nH) were determined by non-linear regression analysis of the inhibition/concentration-response curves generated with mean replicate values using Hill equation curve fitting
where Y=specific activity, A=left asymptote of the curve, D=right asymptote of the curve, C=compound concentration, C50=IC50 or EC50, and nH=slope factor. This analysis was performed using software developed at Cerep (Hill software) and validated by comparison with data generated by the commercial software SigmaPlot® 4.0 for Windows® (© 1997 by SPSS Inc.).
In Vitro Pharmacology. Results showing an inhibition (or stimulation for assays run in basal conditions) higher than 50% were considered to represent significant effects of the test compounds. Results showing an inhibition (or stimulation) between 25% and 50% are indicative of weak to moderate effects. Results showing an inhibition (or stimulation) lower than 25% were not considered significant and mostly attributable to variability of the signal around the control level. […]

immobility = experiment: Tail suspension test (TST)
Protocol: The tail suspension test is an experimental method used in scientific research to measure a state of being helpless in rodents, especially in mice. It is based on the observation that if a mouse is subjected to short term inescapable stress then the mouse will stop struggling. Immobility is quantified by measuring the amount of time lacking whole body activity.
The immobilized time in the last 4 min of the TST, which indicated depression-like behavior, was quantified using offline video manual scoring in a blinded manner.
Animals. Adult (7 to 8 weeks) male mice (C57Bl/6, Charles River Laboratories) were used in the study. Upon arrival, animals were group-housed (5/cage) with access to food and water ad libitum. Animals were maintained on a 12/12-hour light/dark cycle in a temperature—(22±2° C.) and humidity—(approx. 50%) controlled room. Animals were numbered consecutively by tail marks. Each cage was identified by a card indicating the study number, sex, animal numbers and date of birth.
Test article formulations were prepared fresh based on weight-to-volume in the vehicle on each dosing day. […] The appearance of the formulations was clear, with no precipitations. […] A vehicle group was included for comparison.
Monitoring. A piezoelectric sensor operated by the SmartCage system was utilized and video recording was conducted for scoring. After animals acclimated to the testing room, an individual mouse's tail was placed onto the piezoelectric sensor-board and the mouse was hung upside down, which signaled the immediate start of the recording of struggle activity, and it lasted for 6 min. The mouse was then taken off and returned to the home cage. The immobilized time, indicating depression-like behavior, was quantified using manual scoring of the video recordings for the period from 120 seconds to 360 seconds during TST. The percent immobility time was calculated: (immobility time/240 seconds)*100.
The immobilized time in the last 4 min of the TST, which indicates depression-like behavior, was quantified using offline video manual scoring in a blinded manner.
Animals. Adult (8 weeks, approximately 20-25 g) male mice (C57Bl/6, Vendor: Charles River Laboratories) were used in the study. Upon arrival, animals were group-housed (5/cage) with access to food and water ad libitum. Animals were maintained on a 12/12-hour light/dark cycle in a temperature—(22±2° C.) and humidity—(35-50%) controlled room. Animals were numbered consecutively by tail ID. Each cage was identified by a colored card indicating the study number, sex, animal numbers and date of birth.
Test article formulations were prepared fresh based on weight-to-volume in the vehicle on dosing day. […] The appearance of the formulations was clear, with no precipitations.
The tail suspension test is an experimental method used in scientific research to measure a state of being helpless in rodents, especially in mice. It is based on the observation that if a mouse is subjected to short term inescapable stress then the mice will give up struggling. “Immobility” is quantified by measuring the amount of time during which the animal has no whole-body activity.
Tail Suspension Test (TST). A piezoelectric sensor operated by the SmartCage system was utilized and video recording was conducted for scoring. Once animals were acclimated to the testing room, the TST was initiated by placing the tail of the test mouse onto the piezoelectric sensor-board and hanging the mouse upside down. The recording period was initiated once the mouse was upside down and lasted for 6 min. After the recording period, the mouse was removed from the recording device and returned to its home cage.

[2] = Preclinical PK: plasma viloxazine after PO dosing of COMPOUND D or COMPOUND E; type: in vivo, mouse; conditions: COMPOUND E PO 20.99 mg/kg, individual mice
Protocol: A study was conducted for preclinical PK performance of COMPOUND D and COMPOUND E. Please see below for details on the study, with fasted mice orally dosed with COMPOUND D or COMPOUND E.
Relevant data are summarized in below tables (ND=Not determined (Parameters not determined due to inadequately defined terminal elimination phase. BQL=Below the lower limit of quantitation (LLOQ). If the adjusted rsq (linear regression coefficient of the concentration value on the terminal phase) is less than 0.9, T1/2 might not be accurately estimated. If the % AUCExtra>20%, AUC0-inf, Cl, MRT0-inf and Vdss might not be accurately estimated. If the % AUMCExtra>20%, MRT0-inf and Vdss might not be accurately estimated. a: Bioavailability (%) was calculated using AUC0-inf (% AUCExtra<20%) or AUC0-last (% AUCExtra>20%) with nominal dose)

[3] = type: in vitro ADME, mouse; conditions: mice Blood, wet ice bath, 5% Paraoxon ethyl as stabilizer; for % stability: 0.5 hr
[4] = rat liver S9, 1 μM, NCF60 (no cofactors, 60 min)

CCOc1ccccc1OC[C@@H]1CN(C(=O)OC(OC(=O)[C@H](N)C(C)C)C(C)C)CCO1 (stereo partly drawn) [COMPOUND C]
half-life ([1]; Sprague Dawley (rat), pH 7.2, rat, dog and human liver S9 incubations (summary over species), read-out: half-lives): 4 to 12 min | half-life at 1 μM ([1]; Sprague Dawley, pH 7.2, rat liver S9, 1 μM): 8.53 min | microsomal CLint at 1 μM ([1]; Sprague Dawley, pH 7.2, rat liver S9, 1 μM, read-out: CLint(LS9)): 163 µL/min/mg | % Remaining ([1]; rat liver S9, 1 μM, 0 min): 100% | Analyte Peak area/IS Peak area Mean × 100 (n = 2) ([1]; rat liver S9, 1 μM, 0 min): 6.55 | % Remaining ([1]; rat liver S9, 1 μM, 5 min): 19% | Analyte Peak area/IS Peak area Mean × 100 (n = 2) ([1]; rat liver S9, 1 μM, 5 min): 1.24 | % Remaining ([1]; rat liver S9, 1 μM, 10 min): 13% | Analyte Peak area/IS Peak area Mean × 100 (n = 2) ([1]; rat liver S9, 1 μM, 10 min): 0.834 | % Remaining ([1]; rat liver S9, 1 μM, 20 min): 5.6% | Analyte Peak area/IS Peak area Mean × 100 (n = 2) ([1]; rat liver S9, 1 μM, 20 min): 0.365 | % Remaining ([1]; rat liver S9, 1 μM, 30 min): 3.5% | Analyte Peak area/IS Peak area Mean × 100 (n = 2) ([1]; rat liver S9, 1 μM, 30 min): 0.228 | % Remaining ([1]; rat liver S9, 1 μM, 60 min): 0.39% and 0.4% | Analyte Peak area/IS Peak area Mean × 100 (n = 2) ([1]; rat liver S9, 1 μM, 60 min): 0.026 | % Remaining [1, 4]: 3.5% | Analyte Peak area/IS Peak area Mean × 100 (n = 2) [1, 4]: 0.228 | IC50 (Enzyme and uptake assays): 1800 nM | percent immobility time (immobility; COMPOUND C 30 mg/kg PO, dose-response study, vs vehicle): tendency in decreasing immobility | percent immobility time (immobility; COMPOUND C 30 mg/kg PO, follow-up study, vs vehicle (p=0.43)): no significant reduction in immobility | percent immobility time (immobility; COMPOUND C 10, 30, 60, 90 mg/kg PO 30 min prior, ANOVA across all doses): no significant reduction in immobility

CCOc1ccccc1OCC1CN(C(=O)OC(OC(=O)[C@@H](N)C(C)C)C(C)C)CCO1 (stereo partly drawn) [COMPOUND E]
% Remaining at 60 min ([1]; 1 μM in SD Rat liver S9 fractions): 0.00% | half-life at 1 μM ([1]; Sprague-Dawley, pH 7.2, 1 μM in SD Rat liver S9 fractions): 4.8 min | microsomal CLint at 1 μM ([1]; Sprague-Dawley, pH 7.2, 1 μM in SD Rat liver S9 fractions, read-out: CLint(mic.)): 290 µL/min/mg | IC50 (Enzyme and uptake assays): 2600 nM | Plasma concentration of Viloxazine ([2]; 8.00 h): BQL | Plasma concentration of Viloxazine ([2]; 24.0 h): BQL | Mean peak area ([3]; HQC, 0 hr sample): 2.903 | % stability ([3]; HQC): 103% | Mean peak area ([3]; HQC, 0.5 hr sample): 3.00 | Mean peak area ([3]; LQC, 0 hr sample): 0.00933 | % stability ([3]; LQC): 86.3% | Mean peak area ([3]; LQC, 0.5 hr sample): 0.00806

From patent US20240343699A1, “DERIVATIVES OF SUBSTITUTED MORPHOLINES AND USES THEREOF” (Supernus Pharmaceuticals, Inc., priority 2023, published 2024)
